Laboratory results: publication PMC10766610, “DCAF1-based PROTACs with activity against clinically validated targets overcoming intrinsic- and acquired-degrader resistance” (Nature Communications, 2024)

Tests used:
BRD7 = molecular target: T1, BRD7 (Homo sapiens, UniProt Q9NPI1); assay: BRD7-HiBiT protein abundance luminescence assay in HEK293 cells
T1 sequence (Q9NPI1 1-651): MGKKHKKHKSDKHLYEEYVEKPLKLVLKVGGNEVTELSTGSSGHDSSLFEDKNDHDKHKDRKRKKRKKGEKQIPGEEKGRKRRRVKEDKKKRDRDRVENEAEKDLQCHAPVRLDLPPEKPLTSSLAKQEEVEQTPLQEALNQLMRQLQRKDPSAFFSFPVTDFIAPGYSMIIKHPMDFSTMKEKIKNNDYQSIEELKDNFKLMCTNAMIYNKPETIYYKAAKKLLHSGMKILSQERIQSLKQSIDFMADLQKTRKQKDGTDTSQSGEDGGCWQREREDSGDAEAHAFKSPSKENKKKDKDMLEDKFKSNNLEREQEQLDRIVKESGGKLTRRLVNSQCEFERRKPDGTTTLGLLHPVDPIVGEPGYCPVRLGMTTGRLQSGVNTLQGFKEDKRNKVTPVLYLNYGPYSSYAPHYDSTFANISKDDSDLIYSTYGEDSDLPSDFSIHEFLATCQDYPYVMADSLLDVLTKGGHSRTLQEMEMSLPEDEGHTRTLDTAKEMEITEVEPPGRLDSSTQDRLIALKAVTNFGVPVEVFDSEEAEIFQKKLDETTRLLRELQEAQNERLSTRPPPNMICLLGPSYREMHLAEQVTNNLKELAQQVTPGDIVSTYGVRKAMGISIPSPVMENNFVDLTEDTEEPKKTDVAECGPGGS
Description: HEK293/BRD9-HiBiT pools (PROMEGA # CS3023120) and HEK293/BRD7-HiBiT pools (PROMEGA # CS3023124) were purchased from Promega. We performed clonal selection for HEK293/BRD9-HiBiT cell line using single-cell sorting and screening for HiBiT expression using Nano-Glo HiBiT Lytic Detection System (Promega # N3030). The HEK293/BRD9-HiBiT clone and HEK293/BRD7-HiBiT pool to perform standard HiBiT assays.

BTK = BTK (Homo sapiens, UniProt Q06187); assay: Immunoblot of BTK in TMD8 WT and CRBN (CBt) resistant cells; assay type: cell-based; set-up: performed with full-length BTK and endogenous DCAF1; expressed in transfected cells; host or cells: TMD8 cells, lentiviral, blasticidin-selected (TMD8 BTK-GFP/mCh); settings: 24 h; 0.1 µM CBt, 1 µM DBt-10
Chain of BTK (Q06187 2-659 limits assumed): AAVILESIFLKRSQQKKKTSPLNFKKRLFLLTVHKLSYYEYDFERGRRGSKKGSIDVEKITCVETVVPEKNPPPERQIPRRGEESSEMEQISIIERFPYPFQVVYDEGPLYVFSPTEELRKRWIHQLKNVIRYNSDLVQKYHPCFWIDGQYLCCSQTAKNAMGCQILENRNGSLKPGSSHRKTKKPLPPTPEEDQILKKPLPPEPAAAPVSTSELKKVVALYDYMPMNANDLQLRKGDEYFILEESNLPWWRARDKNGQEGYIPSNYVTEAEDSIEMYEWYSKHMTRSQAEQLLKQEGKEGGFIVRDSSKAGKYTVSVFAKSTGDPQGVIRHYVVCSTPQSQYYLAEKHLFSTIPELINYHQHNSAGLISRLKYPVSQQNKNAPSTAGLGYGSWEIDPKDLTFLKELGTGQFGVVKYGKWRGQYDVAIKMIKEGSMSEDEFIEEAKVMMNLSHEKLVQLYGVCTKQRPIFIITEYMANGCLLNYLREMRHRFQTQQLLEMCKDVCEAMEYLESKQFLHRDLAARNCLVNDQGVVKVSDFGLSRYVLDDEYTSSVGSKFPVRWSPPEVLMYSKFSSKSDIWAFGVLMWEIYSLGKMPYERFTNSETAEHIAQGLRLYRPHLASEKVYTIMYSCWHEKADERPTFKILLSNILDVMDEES
Description: (§1) Whole cell lysates for immunoblotting were prepared by pelleting cells at 4 °C (300 g) for 3 min. Cell pellets were then washed 1x with PBS and resuspended in RIPA lysis buffer (VWR, cat # 97063-270) supplemented with protease (Thermo Scientific, cat # A32955) and phosphatase (Thermo Scientific, cat # A32957) inhibitor tablets. Lysates were clarified at 16,000 × g for 15 min at 4 °C prior to quantification by Lowry assay (Bio-Rad cat # 5000113 and cat # 5000114). Whole-cell lysates were loaded into 4–20% Criterion TGX Precast 18 well gels (Bio-Rad, cat # 5671094) and separated by electrophoreses at 120 V for 1 h. The gels were transferred to a nitrocellulose membrane using the Trans-Blot Turbo (Bio-Rad) for 7 min and then blocked for 1 h at room temperature in Odyssey blocking buffer (LICOR Biosciences, cat # 927-50000). Membranes were probed with the appropriate primary antibodies (diluted 1:1000) overnight at 4 °C in 20% Odyssey blocking buffer in 1x TBST. Membranes were washed three times with 1x TBST (5 min per wash), and then incubated with IRDye goat anti-mouse (LICOR, cat # 926-32210) or goat anti-rabbit (LICOR, cat # 926-32211) secondary antibody diluted 1:10,000 in 20% Odyssey blocking buffer for 1 h at room temperature. After three 5-min washes with 1x TBST, the immunoblots were visualized using the ODYSSEY Infrared Imaging System (LICOR). […]

CSK = molecular target: T2, CSK (Homo sapiens, UniProt P41240); assay: Immunoblot of CSK in HEK293T cells; assay type: cell-based; settings: 6 h
T2 construct: host or cells: HEK293T
T2 sequence (P41240 whole entry): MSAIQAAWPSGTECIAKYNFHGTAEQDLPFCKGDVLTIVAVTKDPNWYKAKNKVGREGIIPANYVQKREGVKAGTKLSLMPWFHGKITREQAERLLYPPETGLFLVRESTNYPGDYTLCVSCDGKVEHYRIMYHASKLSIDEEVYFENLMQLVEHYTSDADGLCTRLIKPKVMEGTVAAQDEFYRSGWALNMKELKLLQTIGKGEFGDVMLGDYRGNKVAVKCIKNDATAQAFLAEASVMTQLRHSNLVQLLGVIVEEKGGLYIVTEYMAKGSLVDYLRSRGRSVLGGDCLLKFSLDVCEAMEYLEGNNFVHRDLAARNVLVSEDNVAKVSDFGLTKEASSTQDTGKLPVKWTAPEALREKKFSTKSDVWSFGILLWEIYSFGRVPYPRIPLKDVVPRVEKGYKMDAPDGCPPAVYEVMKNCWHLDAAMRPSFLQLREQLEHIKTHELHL
Description: as §1

LYN = molecular target: T3, LYN (Homo sapiens, UniProt P07948); assay: Immunoblot of LYN in HEK293T cells; assay type: cell-based; settings: 6 h
T3 construct: host or cells: HEK293T
T3 sequence (P07948 whole entry): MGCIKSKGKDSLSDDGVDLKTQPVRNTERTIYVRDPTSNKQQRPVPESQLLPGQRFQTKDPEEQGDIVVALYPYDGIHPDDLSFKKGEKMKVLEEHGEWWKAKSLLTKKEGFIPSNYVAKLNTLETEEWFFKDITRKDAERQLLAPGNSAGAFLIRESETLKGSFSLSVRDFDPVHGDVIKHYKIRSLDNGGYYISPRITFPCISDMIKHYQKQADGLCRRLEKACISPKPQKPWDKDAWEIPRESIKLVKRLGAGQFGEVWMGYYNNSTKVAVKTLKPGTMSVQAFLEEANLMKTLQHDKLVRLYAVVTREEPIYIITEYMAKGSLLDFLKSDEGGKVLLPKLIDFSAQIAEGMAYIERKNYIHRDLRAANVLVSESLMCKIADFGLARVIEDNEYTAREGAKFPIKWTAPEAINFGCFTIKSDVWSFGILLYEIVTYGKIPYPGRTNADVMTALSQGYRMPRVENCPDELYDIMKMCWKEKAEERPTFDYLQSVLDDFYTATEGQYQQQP
Description: as §1

BRD9 = molecular target: T4, BRD9 (Homo sapiens, UniProt Q9H8M2); assay: Rescue of DBr-1 mediated BRD9 degradation by co-treatment, BRD9-HiBiT HEK293 cells; assay type: cell-based; set-up: host or cells: HEK293/BRD9-HiBiT knock-in; clone and BRD9-HiBiT/CAS9/FF clone; settings: (13) 1 µM, OICR8268 10 µM, BI-9564 10 µM
T4 sequence (Q9H8M2 1-597): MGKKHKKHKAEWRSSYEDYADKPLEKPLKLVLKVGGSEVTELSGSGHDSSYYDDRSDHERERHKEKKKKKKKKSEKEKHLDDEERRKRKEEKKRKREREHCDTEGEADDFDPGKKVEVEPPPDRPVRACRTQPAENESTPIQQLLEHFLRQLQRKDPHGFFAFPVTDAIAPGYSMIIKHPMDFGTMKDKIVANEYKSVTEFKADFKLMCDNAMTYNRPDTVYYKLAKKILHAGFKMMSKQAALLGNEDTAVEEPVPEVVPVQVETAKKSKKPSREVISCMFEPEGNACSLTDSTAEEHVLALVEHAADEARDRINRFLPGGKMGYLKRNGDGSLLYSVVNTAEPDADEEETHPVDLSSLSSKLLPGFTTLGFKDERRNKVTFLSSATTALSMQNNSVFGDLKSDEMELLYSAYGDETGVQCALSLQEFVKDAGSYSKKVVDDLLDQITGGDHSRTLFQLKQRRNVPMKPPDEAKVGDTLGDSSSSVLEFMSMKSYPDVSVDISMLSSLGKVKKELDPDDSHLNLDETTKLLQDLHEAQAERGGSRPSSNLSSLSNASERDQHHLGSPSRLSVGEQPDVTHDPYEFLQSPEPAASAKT
Description: Supplementary figure 4. Competition experiments with DBr-1 and DBr-1-N […]
a) BRD9-HiBiT signal detection of samples pretreated with either DMSO, 10µM OICR-8268, 1µM […]
Data represents average ± standard deviation from n=3 replicates. DC50 values and […]
maximal observed degradation are shown below. […]
b) Cell titer Glow assay of BRD9 HiBiT cells. Cells pretreated with either DMSO, 10µM OICR-8268, […]
Data represents average ± standard deviation from n=3 replicates.
Source data are provided as a Source Data file

## COc1cc(-c2cn(C)c(=O)c3cnccc23)c(OC)cc1CN1CCC(OCCCCCC(=O)N2CCN(c3ccc4c(NCCN)nc(C5(c6ccc(Cl)cc6)CCCCC5)nc4c3)CC2)CC1 [DBr-1]
BRD7; 2 h
  maximal observed degradation (BRD7), % in brackets: 65%
BRD7; read-out: rel. DC50 (BRD7), 2 h
  DC50: 360 nM

## Cc1c(NC(=O)N2CC(O)(CC(C)(C)C)C2)cc(F)cc1-c1ncnc2[nH]c(-c3cnn(CC(=O)N4CCC5(CC4)CN(CCNC(=O)CCCC(=O)N4CCN(c6ccc7c(NCCN)nc(C8(c9ccc(Cl)cc9)CCCCC8)nc7c6)CC4)CCO5)c3)cc12 [DBt-10]
BTK
  BTK degradation in TMD8 CBt sensitive (WT) vs resistant cells: equipotent degradation of BTK

## Cc1nc(Nc2ncc(C(=O)Nc3c(C)cccc3Cl)s2)cc(N2CCC(OC3CCN(CCCCCCCC(=O)N4CCN(c5ccc6c(NCCN)nc(C7(c8ccc(Cl)cc8)CCCCC7)nc6c5)CC4)CC3)CC2)n1 [DDa-1]
CSK
  CSK protein levels: significant reduction in protein levels
LYN
  LYN protein levels: not

## CC(=O)N1CCN(c2ccc3c(NCCN)nc(C4(c5ccc(Cl)cc5)CCCCC4)nc3c2)CC1 [compound 13]
BRD9
  effect of co-treatment on DBr-1 mediated BRD9 degradation: did not affect the degradation efficacy of DBr-1
